Data from ChEMBL document CHEMBL5360555, “Structure-based discovery of novel α-aminoketone derivatives as dual p53-MDM2/MDMX inhibitors for the treatment of cancer” (Eur J Med Chem, 2023).

What was measured:
[1] = biological target: E3 ubiquitin-protein ligase Mdm2 (Homo sapiens, UniProt Q00987); assay: Binding affinity to MDM2 (1 to 118 residues) (unknown origin) assessed as inhibition constant incubated for 1 hr measured by fluorescence polarization assay
HCT-116 [2] = assay: Antiproliferative activity against human HCT-116 cells overexpressing MDM2 assessed as cell growth inhibition incubated for 72 hrs by CCK-8 assay; assay type: functional, cell-based; conditions: HCT-116, 72 h
SH-SY5Y [3] = assay: Antiproliferative activity against human SH-SY5Y cells overexpressing MDMX assessed as cell growth inhibition incubated for 72 hrs by CCK-8 assay; assay type: functional, cell-based
SJSA-1 = assay: Antiproliferative activity against human SJSA-1 cells overexpressing MDM2 assessed as cell growth inhibition incubated for 72 hrs by CCK-8 assay; assay type: functional, cell-based; conditions: SJSA-1, 72 h
[4] = Antiproliferative activity against human HCT116-p53-null cells overexpressing MDMX assessed as cell growth inhibition incubated for 72 hrs by CCK-8 assay; assay type: functional, cell-based
HCT-116 [5] = assay: Antiproliferative activity against human HCT-116 cells overexpressing MDM2 assessed as cell growth inhibition incubated at 10 uM for 72 hrs by CCK-8 assay relative to control; assay type: functional
SH-SY5Y [6] = assay: Antiproliferative activity against human SH-SY5Y cells overexpressing MDMX assessed as cell growth inhibition incubated at 10 uM for 72 hrs by CCK-8 assay relative to control; assay type: functional
Protein Mdm4 = biological target: T1, Protein Mdm4 (Homo sapiens, UniProt O15151); assay: Binding affinity to MDMX (1 to 118 residues) (unknown origin) assessed as inhibition constant incubated for 1 hr measured by fluorescence polarization assay
T1 sequence (O15151 whole entry): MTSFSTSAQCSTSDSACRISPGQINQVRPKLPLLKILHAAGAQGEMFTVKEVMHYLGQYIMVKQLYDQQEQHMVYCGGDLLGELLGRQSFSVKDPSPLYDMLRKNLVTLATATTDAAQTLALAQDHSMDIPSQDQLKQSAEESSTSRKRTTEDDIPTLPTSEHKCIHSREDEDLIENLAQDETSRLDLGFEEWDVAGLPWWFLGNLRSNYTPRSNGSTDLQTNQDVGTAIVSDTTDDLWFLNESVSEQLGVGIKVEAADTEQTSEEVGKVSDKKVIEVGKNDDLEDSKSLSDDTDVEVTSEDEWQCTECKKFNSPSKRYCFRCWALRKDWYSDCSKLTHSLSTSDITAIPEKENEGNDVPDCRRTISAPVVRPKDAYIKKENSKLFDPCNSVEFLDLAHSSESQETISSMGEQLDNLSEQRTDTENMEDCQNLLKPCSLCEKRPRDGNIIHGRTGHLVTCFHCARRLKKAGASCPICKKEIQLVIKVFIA

E3 ubiquitin-protein ligase Mdm2, sequence (Q00987 whole entry, the tested form may be a part): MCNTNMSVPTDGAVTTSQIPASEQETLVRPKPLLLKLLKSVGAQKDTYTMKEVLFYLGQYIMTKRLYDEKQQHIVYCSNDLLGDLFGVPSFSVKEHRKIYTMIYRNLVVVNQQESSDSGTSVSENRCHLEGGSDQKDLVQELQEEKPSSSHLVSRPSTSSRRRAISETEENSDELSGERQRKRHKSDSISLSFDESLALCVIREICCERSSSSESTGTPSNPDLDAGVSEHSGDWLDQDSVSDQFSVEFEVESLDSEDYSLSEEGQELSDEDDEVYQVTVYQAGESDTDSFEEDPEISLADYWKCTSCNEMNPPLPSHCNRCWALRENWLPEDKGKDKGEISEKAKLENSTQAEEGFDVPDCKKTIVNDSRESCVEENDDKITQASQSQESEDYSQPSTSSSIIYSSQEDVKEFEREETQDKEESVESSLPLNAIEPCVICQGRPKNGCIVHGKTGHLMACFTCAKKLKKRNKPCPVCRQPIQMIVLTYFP

Structure (SMILES)	Ki [1] [µM]	IC50 (HCT-116 [2]) [µM]	IC50 (SH-SY5Y [3]) [µM]	IC50 (SJSA-1) [µM]	IC50 [4] [µM]	inhibition at 10 µM (HCT-116 [5]) [%]	inhibition at 10 µM (SH-SY5Y [6]) [%]	Ki (Protein Mdm4) [µM]
Cc1cc(Cl)cc(NC(C(=O)c2ccc(Cl)cc2)c2ccc(F)c(Cl)c2)c1 (stereo not drawn)	17.4	16.4	17.5	–	–	–	–	–
O=C(O)CCCCC(=O)N(c1ccc(Cl)cc1)C(C(=O)c1ccc(Cl)cc1)c1ccc(F)cc1Cl (stereo not drawn)	0.71	10.4	9.47	11.4	26.3	–	–	–
COc1ccc(NC(C(=O)c2ccc(Cl)cc2)c2ccc(F)cc2Cl)cc1 (stereo not drawn)	27.8	30.1	29.3	–	–	–	–	–
COc1cccc(CC(C(=O)c2ccc(Cl)cc2)C(=O)c2cc(F)ccc2F)c1 (stereo not drawn)	14.6	–	–	–	–	26.3	18.3	–
O=C(c1ccc(Cl)cc1)C(Nc1ccccc1)c1ccccc1 (stereo not drawn)	18.3	> 40	> 40	–	–	–	–	–
O=C(c1ccc(Cl)cc1)C(Cc1cccc(C(F)(F)F)c1)C(=O)c1cc(F)ccc1F (stereo not drawn)	13.4	–	–	–	–	48.4	42.9	–
COC(=O)/C=C/C(=O)N(c1ccc(Cl)cc1)C(C(=O)c1ccc(Cl)cc1)c1ccc(F)cc1Cl (stereo not drawn)	1.46	18.9	19.5	17.4	37.1	–	–	–
COC(=O)CCC(=O)N(c1ccc(Cl)cc1)C(C(=O)c1ccc(Cl)cc1)c1ccc(F)cc1Cl (stereo not drawn)	1.39	19.6	20.8	18.9	32.4	–	–	–
O=C(c1ccc(Cl)cc1)C(Cc1ccccc1Cl)C(=O)c1cc(F)ccc1F (stereo not drawn)	15.1	–	–	–	–	25.4	22.7	–
O=C(c1ccc(Cl)cc1)C(Cc1ccc(Cl)cc1)C(=O)c1cc(F)ccc1F (stereo not drawn)	23.5	–	–	–	–	5.64	10.9	–
O=C(c1ccc(Cl)cc1)C(Nc1cccc(Cl)c1)c1ccc(F)cc1Cl (stereo not drawn)	6.92	16.6	14.1	–	–	–	–	–
O=C(c1ccc(Cl)cc1)C(Nc1ccc(Cl)c(Cl)c1)c1ccc(Cl)c(Cl)c1 (stereo not drawn)	4.29	12.3	14.4	–	–	–	–	–
O=C(c1ccc(Cl)cc1)C(Nc1cccc(Cl)c1F)c1ccc(Cl)c(Cl)c1 (stereo not drawn)	2.13	11.1	11	–	–	–	–	–
O=C(c1ccc(Cl)cc1)C(Nc1ccc(Cl)cc1)c1ccc(F)cc1Cl (stereo not drawn)	0.91	11.7	9.84	–	–	–	–	–
O=C(c1ccc(Cl)cc1)C(Cc1cc2ccccc2cn1)C(=O)c1cc(F)ccc1F (stereo not drawn)	21.8	–	–	–	–	36.7	9.44	–
O=C(O)/C=C/C(=O)N(c1ccc(Cl)cc1)C(C(=O)c1ccc(Cl)cc1)c1ccc(F)cc1Cl (stereo not drawn)	1.1	15.4	15	15.6	31.3	–	–	–
COC(=O)CCCC(=O)N(c1ccc(Cl)cc1)C(C(=O)c1ccc(Cl)cc1)c1ccc(F)cc1Cl (stereo not drawn)	1.15	16.1	14.2	14.9	28.2	–	–	–
O=C(c1ccc(Cl)cc1)C(Cc1cccc(Cl)c1)C(=O)c1cc(F)ccc1F (stereo not drawn)	6.02	–	–	–	–	51.8	48.1	–
COc1ccc(C(=O)C(Nc2ccc(C)cc2)c2ccc(OC)cc2)cc1 (stereo not drawn)	16.5	33	32.8	–	–	–	–	–
O=C(c1ccc(Cl)cc1)C(Nc1cc(F)cc(F)c1)c1ccc(Cl)c(Cl)c1 (stereo not drawn)	6.86	13.5	13.1	–	–	–	–	–
O=C(c1ccc(Br)cc1)C(Nc1ccc(Cl)cc1)c1ccc(Cl)cc1 (stereo not drawn)	13.2	21.9	20.4	–	–	–	–	–

Structure (SMILES)	Ki [1] [µM]	IC50 (HCT-116 [2]) [µM]	IC50 (SH-SY5Y [3]) [µM]	IC50 (SJSA-1) [µM]	IC50 [4] [µM]	inhibition at 10 µM (HCT-116 [5]) [%]	inhibition at 10 µM (SH-SY5Y [6]) [%]	Ki (Protein Mdm4) [µM]
O=C(c1ccc(Cl)cc1)C(Cc1ccsc1)C(=O)c1cc(F)ccc1F (stereo not drawn)	14	–	–	–	–	31.8	15.3	–
O=C(c1ccccc1)C(Nc1ccccc1)c1ccccc1 (stereo not drawn)	38.2	> 40	> 40	–	–	–	–	–
Cc1cccc(CC(C(=O)c2ccc(Cl)cc2)C(=O)c2cc(F)ccc2F)c1 (stereo not drawn)	22.5	–	–	–	–	33.7	24.6	–
O=C(c1ccc(Cl)cc1)C(Cc1ccc(Cl)nc1)C(=O)c1cc(F)ccc1F (stereo not drawn)	15.3	–	–	–	–	39.4	20.1	–
O=C(O)CCC(=O)N(c1ccc(Cl)cc1)C(C(=O)c1ccc(Cl)cc1)c1ccc(F)cc1Cl (stereo not drawn)	1.07	14.2	8.13	12	36.4	–	–	–
O=C(c1ccc(Cl)cc1)C(Cc1cccc(F)c1)C(=O)c1cc(F)ccc1F (stereo not drawn)	12.8	–	–	–	–	14.3	18.9	–
CCOc1cc(/C=C2\C(=O)N(c3ccccc3)N=C2C)cc(Cl)c1OCC(=O)OC	–	–	12.9	–	–	–	–	0.78
O=C(c1ccc(Cl)cc1)C(Nc1cc(F)cc(F)c1)c1ccc(Cl)cc1F (stereo not drawn)	2.45	13.3	13.6	–	–	–	–	–
COc1ccc(C(=O)C(Nc2ccccc2)c2ccccc2)cc1 (stereo not drawn)	25.8	> 40	> 40	–	–	–	–	–
O=C(c1ccc(Cl)cc1)C(Nc1ccc(Cl)cc1)c1cc(F)ccc1F (stereo not drawn)	14.9	21.5	21.8	–	–	–	–	–
O=C(c1ccccc1)C(Cc1ccccc1)C(=O)c1ccccc1	25.8	–	–	–	–	11.2	9.88	–
O=C(c1ccc(Cl)cc1)C(Nc1ccc(Cl)cc1)c1ccc(F)c(Cl)c1 (stereo not drawn)	24.2	29.2	21.3	–	–	–	–	–
COC(=O)CCCCC(=O)N(c1ccc(Cl)cc1)C(C(=O)c1ccc(Cl)cc1)c1ccc(F)cc1Cl (stereo not drawn)	0.82	14.1	13.7	12.3	37.2	–	–	–
Cc1cc(Cl)cc(NC(C(=O)c2ccc(F)cc2)c2ccc(F)c(Cl)c2)c1 (stereo not drawn)	19.7	18.5	18.2	–	–	–	–	–
O=C(O)CCCC(=O)N(c1ccc(Cl)cc1)C(C(=O)c1ccc(Cl)cc1)c1ccc(F)cc1Cl (stereo not drawn)	0.78	10.1	11.4	9.83	29.6	–	–	–
O=C(c1ccc(F)cc1)C(Nc1ccc(Cl)cc1)c1ccc(Cl)cc1 (stereo not drawn)	12.3	18.8	15	–	–	–	–	–
O=C(c1ccc(Cl)cc1)C(Cc1cc(Cl)cc(Cl)c1)C(=O)c1cc(F)ccc1F (stereo not drawn)	7.69	–	–	–	–	33.5	9.49	–
O=C(c1ccc(Cl)cc1)C(Nc1ccc(Cl)cc1)c1cc(F)cc(F)c1 (stereo not drawn)	24.7	> 40	> 40	–	–	–	–	–
O=C(c1ccc(Cl)cc1)C(Nc1ccc(F)cc1)c1ccc(F)cc1Cl (stereo not drawn)	7.34	15.6	17.2	–	–	–	–	–
O=C(c1ccc(Cl)cc1)C(Cc1ccc(-c2ccccc2)cc1)C(=O)c1cc(F)ccc1F (stereo not drawn)	24.5	–	–	–	–	29.9	13.2	–
